Common to all, as to assay type: cell-based
One data set deals with RAW cells. On the procedure:
The in vitro toxicity of the active molecule was studied by MTT assay using RAW cells (Mossman, T., 1983, J. Immunol. Methods, 65, 55-63).
The stock culture of RAW cells was obtained from National Facility for Cell and Tissue Culture, Pune. Cells were maintained in RPMI - 1640 medium supplemented with glutamine (2.3 gm/L), fetal calf serum (10% v/v) and gentamycin (50.0 mg/L) at 37°C in Nuair IR Autoflow water Jacketed carbon dioxide incubator.
The stock solution of the compound was prepared by dissolving 2.5 mg of the purified compound in minimum amount of DMSO and then diluted with double distilled water to make the final volume 1.0-ml. The different concentrations ranging from 1250.0 µg/ml to 19.5 µg/ml were tested in the cytotoxicity assay.
The cells were harvested at the log phase of growth confluency from the flask. The homogeneous suspension of cells was prepared in 2.0 ml of culture medium. The number of cells in the suspension was counted using a hemocytometer and the cell suspension was diluted in such a way so as to obtain 5x10^7 viable cells per ml. The viability of the cells was checked with trypan blue dye exclusion test. The cytotoxicity assay was performed in 96 wells flat bottom tissue culture plates (Nunc Nunclon). The cells ([…]) in 100.0 µl volume were seeded into each well. The plate was incubated at 37 °C in atmosphere of 5% (v/v) CO2 for 8 h. The wells were examined microscopically for the formation of monolayer of the cells. Various concentrations ranging from 1250.0 µg/ml to 19.5 µg/ml of the compound PC-1 (metelatropinyl ester) were added to the monolayer of cells. In +ve control wells, a known cytotoxic protein obtained from A. fumigatus, was used. […] After lysis of the cells, the plates were read at 540 nm using plate reader (Spectra Max 190, Molecular Device).
The toxicity of the compound was expressed as percentage with respect to that obtained in -ve control sample. The percent cytotoxicity was calculated using the formula given below. % Cytotoxicity = (OD in-ve control-OD in the test)/(OD in-ve control) × 100 [formula] […]

The test system of another data set is Aspergillus species. As to the kind of experiment: Spore germination inhibition assay. As to conditions: percent spore germination inhibition, 10 hrs at 37° C. As for the experimental part:
(§1) Pathogenic strains of fungi were obtained from the Mycology Department of Vallabhbhai Patel Chest Institute, Delhi. All the strains were grown on Sabouraud dextrose agar at 37°C. The conidia form these cultures were harvested and suspended in Sabouraud maltose broth. The number of conidia was counted using haemocytometer and their number in the suspension was adjusted to as per need of the experiment.
The modified spore germination inhibition assay was performed as described earlier (Sureder P. and Janaiah C., 1987, Ind. J. Expt. Biol., 25, 233-234). The fungal species were grown on Sabouraud dextrose agar plates at 37°C for 96 h. […] The conidia were counted and their number in the suspension was adjusted to 1x10^4 per ml. The standard drug Amphotericin B and test samples were initially dissolved in minimal quantity of dimethylsulfoxide (DMSO) and then diluted with Sabouraud dextrose medium. […] The number of germinated and non-germinated spores was counted. The percent spore germination inhibition (PSGI) was calculated using following formula PSGI = 100-(No.of spores germinated in drug treated well)/(No.of spores germinated in control well) [formula] […]
The spore germination inhibition assay was performed to evaluate the activity of the compound. […] The number of germinated and non-germinated spores was counted and the percent spore germination inhibition (PSGI) was calculated. […]

For the next data set, the system named is Aspergillus. As to the kind of experiment: Disc diffusion assay, overall result for Aspergillus. The following applies: concentration developing zone of inhibition of 6.0-mm diameter. On the procedure:
as §1
The leftover residue was finally dissolved in methanol. Dried fractions were examined for their antifungal activity.
(§2) The disc diffusion test was performed as per described in the section of details of invention. Amphotericin B 1.25 µg/disc was used in assay as positive control standard drug. Additional discs impregnated with equivalent amount of solvent were also used in the assay as negative controls (Fig: 5). […] Table 2: Antifungal activity of compound by disc diffusion method

For another data set, the system named is A. flavus. As to the kind of experiment: Disc diffusion assay. The following applies: Aspergillus flavus, 48 hrs, read-out: Diameter of zone of inhibition. On the procedure: as §1, §2
Another data set deals with A.niger. As to the kind of experiment: Disc diffusion assay. As to conditions: 48 hrs. As for the experimental part: as §1, §2

In brackets after ≈: the same amount, converted by molar mass.

As for `CCCCC(=O)OC(C)CC1NCC(C)=C1C` (stereo not drawn) [PC-1, 2-(3,4-dimethyl-2,5-dihydro-1H-pyrrol-2-yl)-1-methylethyl pentanoate], the “concentration completely non-toxic to the cells” value in the data set on RAW cells is listed as “up to 312.5 µg/ml”. The “CT50 (dose cytotoxic to 50% of the cells)” value in the data set with RAW cells (RAW cells, MTT, 12 h) stood at 889.2 µg/mL. For the same compound, the “less cytotoxic than the standard antifungal drug such as Amphotericin B” value in the data set on RAW cells (comparison with Amphotericin B) is given as 57.8 times. For the same compound, the figures for the MIC in the data set with Aspergillus species, in the data set on Aspergillus and with Aspergillus (listed as novel antifungal lead molecule) were 87.5 µg/mL (≈ 366 µM), 5 µg/disc and 5.0 µg/disc, respectively. In addition, the zone of inhibition at 5 µg/disc was found to be 6.15 mm with A. flavus (5.0 µg/disc) and 6.4 mm with A.niger (Aspergillus niger, 5.0 µg/disc, read-out: Diameter of zone of inhibition). In addition, the zone of inhibition at 10 µg/disc was found to be 8.1 mm in the data set on A. flavus (10.0 µg/disc) and 8.6 mm in the data set on A.niger (Aspergillus niger, 10.0 µg/disc, read-out: Diameter of zone of inhibition). The zone of inhibition at 20 µg/disc with A. flavus (20.0 µg/disc) was 9 mm. Moreover, in the data set on A.niger (5.0 µg/disc), the “Diameter of zone of inhibition” value was 6.40 mm.

The record behind these values is EP1487791B1, “A NOVEL ANTIFUNGAL MOLECULE 2-(3,4-DIMETHYL-2,5-DIHYDRO-1H-PYRROL-2-YL)- METHYLETHYL PENTANOATE” (priority 2002, dated 2003).
